Legend:
[1] = pH of binding buffer when amino compounds were added; type: physicochemical; settings: FIG. 11
Experimental: Change in the pH when the concentration of each of spermidine·3HCl, spermine, and 1,3-diaminopropane added to binding buffer was changed was evaluated. Binding buffer was used for a reaction buffer.

EnGen Lba Cas12a (Cpf1) = assay: Experiment of cleavage activity of Cas12a (trans-cleavage of fluorescent reporter molecule); type: biochemical; settings: for rising of fluorescence compared with no addition: addition concentration 12 mM; for addition concentration at which an effect of facilitating the reaction was observed: concentration changed between 0 to 12 mM, FIGS. 4A to 4E
Experimental: (§1) Thereafter, in a 96-well plate (137101, Thermo Fisher Scientific), binding buffer, various additives, a reporter molecule, and water were added, the total volume was adjusted to 80 μL, and the fluorescence intensity was measured every 2 min at 37° C. for 1 to 2 hours by using a fluorescent plate reader Synergy MX (BioTec). Regarding the measurement wavelength, for HiLyte488, an excitation wavelength of 485±20 nm and a fluorescence wavelength of 528±20 nm were used. For the IDT reporter, an excitation wavelength of 535±20 nm and a fluorescence wavelength of 595±20 nm were used. For a reporter marked with Cy5 or Alexa Fluor 647, an excitation wavelength of 620±20 nm and a fluorescence wavelength of 680±20 nm were used.
FIGS. 1A and 1B illustrate a change over time in the ratio of the fluorescence intensity of the IDT reporter to the fluorescence intensity of an internal standard dye Hilyte488.

[2] = biological target: Alt-R A.s. Cas12a (Cpf1) Nuclease V3 (Acidaminococcus sp., UniProt U2UMQ6); settings: spermine 2.0 mM; NEBuffer 2.1; various concentrations of Tween 20 and BSA; FIG. 2A
Experimental: as §1, with “A ternary complex was formed by mixing 400-nM Cas12a, 500-nM crRNA, and a predetermined concentration of target DNA at a volume ratio of 1:1:2 and performing incubation at 37° C. for 30 to 60 minutes. Thereafter,” for “Thereafter,”

[3] = biological target: Alt-R A.s. Cas12a (Cpf1) Ultra (Acidaminococcus sp., UniProt U2UMQ6, F870L/M537R); settings: spermine 2.0 mM; NEBuffer 2.1; various concentrations of Tween 20 and BSA; FIG. 2B
Experimental: as §1, with “A ternary complex was formed by mixing 400-nM Cas12a, 500-nM crRNA, and a predetermined concentration of target DNA at a volume ratio of 1:1:2 and performing incubation at 37° C. for 30 to 60 minutes. Thereafter,” for “Thereafter,”

Row | Compound | change in the pH of binding buffer with addition concentration [1] | rising of fluorescence compared with no addition (EnGen Lba Cas12a (Cpf1)) | addition concentration at which an effect of facilitating the reaction was observed (EnGen Lba Cas12a (Cpf1)) [mM] | effect of amino compound on cleavage reaction of Cas12a (ratio of IDT reporter fluorescence to Hilyte488) (EnGen Lba Cas12a (Cpf1); 2.0 mM, binding buffer and NEBuffer 2.1, 0.5% Tween 20 + 0.3% BSA or 1.5% Tween + 0.6% BSA, 1 nM target DNA) | effect on cleavage reaction with respect to ten types of reporter molecules (EnGen Lba Cas12a (Cpf1); 2.0 mM, binding buffer, all reporter molecules of Table 1, FIG. 3B) | effect of facilitating the reaction (EnGen Lba Cas12a (Cpf1); 7.8 mM (FIG. 5A) or 1.4 mM (FIGS. 5B and 5C), binding buffer, IDT reporter) | cleavage activity against the reporter molecule depending on timing of addition of amino compound (EnGen Lba Cas12a (Cpf1); final 2.0 mM, conditions 1 to 6, binding buffer, FIGS. 9A to 9C) | effect of amino compound on cleavage reaction (EnGen Lba Cas12a (Cpf1); spermine 2.0 mM, NEBuffer 2.1, various concentrations of Tween 20 and BSA, FIG. 2C) | effect of amino compound on cleavage reaction [2] | effect of amino compound on cleavage reaction [3]
1 | NCCCN [1,3-diaminopropane] | the pH increased with increasing the addition concentration | – | – | – | – | – | – | – | – | –
2 | NCCCCNCCCN [spermidine] | – | the rising of fluorescence equivalent to that in the instance of no addition | ≥ 0.2 | – | – | – | – | – | – | –
3 | Cl.Cl.Cl.NCCCCNCCCN [spermidine·3HCl, spermidine trihydrochloride] | the pH hardly changed | – | – | – | – | – | – | – | – | –
4 | NCCCNCCCCNCCCN [spermine] | the pH increased with increasing the addition concentration | the rising of fluorescence was reduced compared with the instance of no addition | ≤ 7.8 | facilitated the reaction | the effect of facilitating the reaction by addition of the amino compound was ascertained | a high effect of facilitating the reaction | higher under condition 2, condition 4, and condition 6 | the reaction was facilitated | the reaction was facilitated | the reaction was facilitated
